Data from patent US7211572B2 (Japan Tobacco Inc., priority 2003, dated 2007).
pIC50: −log10 of the molar value. Counter-ions that a name gives are not always drawn.

biological target: T1, HIV integrase (Human immunodeficiency virus type 1 group M subtype B, UniProt P12497, F1332H); experiment: Determination of enzyme (HIV integrase) inhibitory activity; format: biochemical; settings: recombinant HIV integrase (F185H), strand transfer ELISA, absorbance at 450 nm
T1 construct: HIV integrase full length gene; made in house; host or cells: Escherichia coli BL21(DE3), plasmid pET21a-INH
In short: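 Full-length integrase with F185H, expressed in E. coli and purified, was reacted for 60 min at 37 °C with compound and biotinylated donor DNA bound to streptavidin plates. Target DNA was added for 10 min, then anti-digoxigenin-peroxidase detection at A450; IC50 from % inhibition versus enzyme-free blank.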

| SMILES | pIC50 |
| --- | --- |
| CS(=O)(=O)Nc1cn2c(c(O)c1=O)C(=O)N(Cc1ccc(F)c(Cl)c1)CC2 [Example 353, N-[2-(3-chloro-4-fluorobenzyl)-9-hydroxy-1,8-dioxo-1,3,4,8-tetrahydro-2H-pyrido[1,2-a]pyrazin-7-yl]methanesulfonamide] | > 8.00 |
| CCCOc1ccc(CN2CCn3cc(-c4nccs4)c(=O)c(O)c3C2=O)cc1Cl [Example 354, 2-(3-chloro-4-propoxybenzyl)-9-hydroxy-7-(thiazol-2-yl)-3,4-dihydro-2H-pyrido[1,2-a]pyrazine-1,8-dione hydrochloride] | 7.00 to 8.00 |
| CC(C)Oc1ccc(CN2CCn3cc(-c4nccs4)c(=O)c(O)c3C2=O)cc1Cl [Example 355, 2-(3-chloro-4-isopropoxybenzyl)-9-hydroxy-7-(thiazol-2-yl)-3,4-dihydro-2H-pyrido[1,2-a]pyrazine-1,8-dione hydrochloride] | 7.00 to 8.00 |
| O=C1c2c(O)c(=O)c(-c3nccs3)cn2CCN1Cc1ccc(OCc2ccccc2)c(Cl)c1 [Example 356, 2-(4-benzyloxy-3-chlorobenzyl)-9-hydroxy-7-(thiazol-2-yl)-3,4-dihydro-2H-pyrido[1,2-a]pyrazine-1,8-dione hydrochloride] | 7.00 to 8.00 |
| CCCOc1cc(Cl)ccc1CN1CCn2cc(-c3nccs3)c(=O)c(O)c2C1=O [Example 357, 2-(4-chloro-2-propoxybenzyl)-9-hydroxy-7-(thiazol-2-yl)-3,4-dihydro-2H-pyrido[1,2-a]pyrazine-1,8-dione hydrochloride] | 7.00 to 8.00 |
| CC(C)Oc1cc(Cl)ccc1CN1CCn2cc(-c3nccs3)c(=O)c(O)c2C1=O [Example 358, 2-(4-chloro-2-isopropoxybenzyl)-9-hydroxy-7-(thiazol-2-yl)-3,4-dihydro-2H-pyrido[1,2-a]pyrazine-1,8-dione hydrochloride] | 7.00 to 8.00 |
| O=C1c2c(O)c(=O)c(-c3nccs3)cn2CCN1Cc1ccc(Cl)cc1OCc1ccccc1 [Example 359, 2-(2-benzyloxy-4-chlorobenzyl)-9-hydroxy-7-(thiazol-2-yl)-3,4-dihydro-2H-pyrido[1,2-a]pyrazine-1,8-dione hydrochloride] | 7.00 to 8.00 |
| Cn1ncnc1-c1cn2ccn(Cc3ccc(F)cc3)c(=O)c2c(O)c1=O [Example 360, 2-(4-fluorobenzyl)-9-hydroxy-7-(2-methyl-2H-1,2,4-triazol-3-yl)-2H-pyrido[1,2-a]pyrazine-1,8-dione hydrochloride] | > 8.00 |
| CNC(=O)c1cn2c(c(O)c1=O)C(=O)N(Cc1cccc(Cl)c1F)CC2 [Example 361, N-methyl-2-(3-chloro-2-fluorobenzyl)-9-hydroxy-1,8-dioxo-1,3,4,8-tetrahydro-2H-pyrido[1,2-a]pyrazine-7-carboxamide] | 7.00 to 8.00 |
| CCC(C)(C)C(=O)c1cn2c(c(O)c1=O)C(=O)N(Cc1cccc(Cl)c1)CC2 [Example 362, 2-(3-chlorobenzyl)-7-(2,2-dimethylbutyryl)-9-hydroxy-3,4-dihydro-2H-pyrido[1,2-a]pyrazine-1,8-dione] | 7.00 to 8.00 |
| O=C1c2c(O)c(=O)c(-c3ccccn3)cn2CCN1Cc1ccc(F)cc1 [Example 363, 2-(4-fluorobenzyl)-9-hydroxy-7-(pyridin-2-yl)-3,4-dihydro-2H-pyrido[1,2-a]pyrazine-1,8-dione hydrochloride] | 7.00 to 8.00 |
| O=c1c(-c2ccccn2)cn2ccn(Cc3cccc(Cl)c3F)c(=O)c2c1O [Example 364, 2-(3-chloro-2-fluorobenzyl)-9-hydroxy-7-(pyridin-2-yl)-2H-pyrido[1,2-a]pyrazine-1,8-dione hydrochloride] | > 8.00 |
| O=c1c(-c2ccccn2)cn2ccn(Cc3cccc(F)c3)c(=O)c2c1O [Example 365, 2-(3-fluorobenzyl)-9-hydroxy-7-(pyridin-2-yl)-2H-pyrido[1,2-a]pyrazine-1,8-dione hydrochloride] | 7.00 to 8.00 |
| CC(=O)Nc1cc(F)ccc1CN1CCn2cc(-c3nccs3)c(=O)c(O)c2C1=O [Example 366, N-{5-fluoro-2-[9-hydroxy-1,8-dioxo-7-(thiazol-2-yl)-1,3,4,8-tetrahydro-pyrido[1,2-a]pyrazin-2-ylmethyl]phenyl}acetamide hydrochloride] | 6.00 to 7.00 |
| CC(C)(C)C(=O)c1cn2c(c(O)c1=O)C(=O)N(Cc1cccc(Cl)c1F)CC2 [Example 367, 2-(3-chloro-2-fluorobenzyl)-7-(2,2-dimethylpropionyl)-9-hydroxy-3,4-dihydro-2H-pyrido[1,2-a]pyrazine-1,8-dione hydrochloride] | 7.00 to 8.00 |
| O=C(O)c1cc(F)ccc1CN1CCn2cc(-c3nccs3)c(=O)c(O)c2C1=O [Example 368, 5-fluoro-2-[9-hydroxy-1,8-dioxo-7-(thiazol-2-yl)-1,3,4,8-tetrahydro-pyrido[1,2-a]pyrazin-2-ylmethyl]benzoic acid hydrochloride] | 7.00 to 8.00 |
| O=c1c(-c2ccccn2)cn2ccn(Cc3ccc(F)c(F)c3)c(=O)c2c1O [Example 369, 2-(3,4-difluorobenzyl)-9-hydroxy-7-(pyridin-2-yl)-2H-pyrido[1,2-a]pyrazine-1,8-dione hydrochloride] | > 8.00 |

| SMILES | pIC50 |
| --- | --- |
| CN(Cc1ccccc1)C(=O)c1cn2c(c(O)c1=O)C(=O)N(Cc1cccc(Cl)c1)CC2 [Example 370, N-benzyl-N-methyl-2-(3-chlorobenzyl)-9-hydroxy-1,8-dioxo-1,3,4,8-tetrahydro-2H-pyrido[1,2-a]pyrazine-7-carboxamide hydrochloride] | > 8.00 |
| O=C(NCc1cccnc1)c1cn2c(c(O)c1=O)C(=O)N(Cc1cccc(Cl)c1)CC2 [Example 371, N-(pyridin-3-ylmethyl)-2-(3-chlorobenzyl)-9-hydroxy-1,8-dioxo-1,3,4,8-tetrahydro-2H-pyrido[1,2-a]pyrazine-7-carboxamide hydrochloride] | 7.00 to 8.00 |
| O=C(NCc1ccccn1)c1cn2c(c(O)c1=O)C(=O)N(Cc1cccc(Cl)c1)CC2 [Example 372, N-(pyridin-2-ylmethyl)-2-(3-chlorobenzyl)-9-hydroxy-1,8-dioxo-1,3,4,8-tetrahydro-2H-pyrido[1,2-a]pyrazine-7-carboxamide hydrochloride] | 7.00 to 8.00 |
| O=C1c2c(O)c(=O)c(-c3ccccn3)cn2CCN1Cc1ccc(Cl)c(Cl)c1 [Example 373, 2-(3,4-dichlorobenzyl)-9-hydroxy-7-(pyridin-2-yl)-3,4-dihydro-2H-pyrido[1,2-a]pyrazine-1,8-dione trifluoroacetate] | > 8.00 |
| CC(=O)CNC(=O)c1cn2c(c(O)c1=O)C(=O)N(Cc1cccc(Cl)c1)CC2 [Example 374, N-(2-oxopropyl)-2-(3-chlorobenzyl)-9-hydroxy-1,8-dioxo-1,3,4,8-tetrahydro-2H-pyrido[1,2-a]pyrazine-7-carboxamide hydrochloride] | 7.00 to 8.00 |
| O=c1c(-c2ccncc2)cn2ccn(Cc3cccc(F)c3)c(=O)c2c1O [Example 375, 2-(3-fluorobenzyl)-9-hydroxy-7-(pyridin-4-yl)-2H-pyrido[1,2-a]pyrazine-1,8-dione hydrochloride] | 7.00 to 8.00 |
| CC(C)(C)C(=O)c1cn2ccn(Cc3cccc(F)c3)c(=O)c2c(O)c1=O [Example 376, 7-(2,2-dimethylpropionyl)-2-(3-fluorobenzyl)-9-hydroxy-2H-pyrido[1,2-a]pyrazine-1,8-dione hydrochloride] | 7.00 to 8.00 |
| O=C(NCc1ccccc1F)c1cn2c(c(O)c1=O)C(=O)N(Cc1ccc(F)cc1)CC2 [Example 377, N-(2-fluorobenzyl)-2-(4-fluorobenzyl)-9-hydroxy-1,8-dioxo-1,3,4,8-tetrahydro-2H-pyrido[1,2-a]pyrazine-7-carboxamide] | > 8.00 |
| O=C(NCc1ccc(F)cc1)c1cn2c(c(O)c1=O)C(=O)N(Cc1ccc(F)cc1)CC2 [Example 378, N-(4-fluorobenzyl)-2-(4-fluorobenzyl)-9-hydroxy-1,8-dioxo-1,3,4,8-tetrahydro-2H-pyrido[1,2-a]pyrazine-7-carboxamide] | > 8.00 |
| CNC(=O)c1cn2c(c(O)c1=O)C(=O)N(Cc1ccc(F)cc1)CC2 [Example 379] | 6.00 to 7.00 |
| O=C(NCc1ccccc1)c1cn2c(c(O)c1=O)C(=O)N(Cc1ccc(F)cc1)CC2 [Example 380, N-benzyl-2-(4-fluorobenzyl)-9-hydroxy-1,8-dioxo-1,3,4,8-tetrahydro-2H-pyrido[1,2-a]pyrazine-7-carboxamide] | 7.00 to 8.00 |
| CNC(=O)c1cn2c(c(O)c1=O)C(=O)N(Cc1ccc(Cl)cc1)CC2 [Example 381, N-methyl-2-(4-chlorobenzyl)-9-hydroxy-1,8-dioxo-1,3,4,8-tetrahydro-2H-pyrido[1,2-a]pyrazine-7-carboxamide] | 7.00 to 8.00 |
| CCC(C)(C)C(=O)c1cn2ccn(Cc3ccc(F)cc3)c(=O)c2c(O)c1=O [Example 382, 7-(2,2-dimethylbutyryl)-2-(4-fluorobenzyl)-9-hydroxy-2H-pyrido[1,2-a]pyrazine-1,8-dione hydrochloride] | 7.00 to 8.00 |
| O=C1c2c(O)c(=O)c(-c3cnccn3)cn2CCN1Cc1ccc(Cl)c(Cl)c1 [Example 383, 2-(3,4-dichlorobenzyl)-9-hydroxy-7-(pyrazin-2-yl)-3,4-dihydro-2H-pyrido[1,2-a]pyrazine-1,8-dione hydrochloride] | 7.00 to 8.00 |
| CC(C)C(=O)c1cn2c(c(O)c1=O)C(=O)N(Cc1ccc(Cl)c(Cl)c1)CC2 [Example 384, 2-(3,4-dichlorobenzyl)-9-hydroxy-7-isobutyryl-3,4-dihydro-2H-pyrido[1,2-a]pyrazine-1,8-dione] | > 8.00 |
| CC(C)C(=O)c1cn2c(c(O)c1=O)C(=O)N(Cc1ccc(F)cc1)CC2 [Example 385, 2-(4-fluorobenzyl)-9-hydroxy-7-isobutyryl-3,4-dihydro-2H-pyrido[1,2-a]pyrazine-1,8-dione] | 7.00 to 8.00 |
| CC(C)(C)C(=O)c1cn2c(c(O)c1=O)C(=O)N(Cc1ccc(F)cc1)CC2 [Example 386, 7-(2,2-dimethylpropionyl)-2-(4-fluorobenzyl)-9-hydroxy-3,4-dihydro-2H-pyrido[1,2-a]pyrazine-1,8-dione] | 7.00 to 8.00 |
